Patent US12391701B2, “Chromene-based compounds, methods and uses thereof” (University of Minho, priority 2019, dated 2025)

What was measured:
[1] = tested on: Caenorhabditis elegans; assay: C. elegans food clearance toxicity assay; assay type: in vivo; conditions: several concentrations up to 150 μM (MC369 75 μM)
Experimental: In an embodiment, toxicity assessment of the compounds in vivo was performed using Caenorhabditis elegans (C. elegans) as a model. A food clearance-based assay was performed, in which the bacteria consumption over time is a proxy for worm development, health and fertility (FIG. 11). […] Worms were cultivated for 7 days in liquid media using heat-inactivated bacteria (E. coli OP50) as a food source and in the presence of several concentrations of compounds MC421, MC406, MC369 and MC408, MC409, MC407. The rate of food consumption between days 3-5 was used as an indication for worm development, health and also fertility, as after day 3 the worms' progeny will contribute to the faster decline in food abundance. An example is shown for hypothetical compound X. DMSO 1% and 5% are used as negative and positive controls for toxicity, respectively. For this experiment, the compounds were solubilized in DMSO 1% (vehicle). In an embodiment, Bristol strain N2 (provided by the CGC, funded by the NIH Office of Research Infrastructure Programs—P40 OD010440) was used to test each compound's toxicity based on a food clearance assay using C. elegans. The assay was performed on 96-well plates in liquid culture (Voisine et al. 2007; Teixeira-Castro et al. 2015). Each well, with a final volume of 60 μL, comprised the following: approximately 20 worms in egg stage, OP50 bacteria to a final OD of 0.6-0.8 (595 nm) and each compound at the appropriate concentration. The worms were grown with continuous shaking at 180 rpm/20° C. (Shel lab Si series incubator) for 7 days and the absorbance (OD595) was measured daily on a microplate reader (Tecan Infinite M200). The effect of the compounds on C. elegans physiology was monitored by the rate at which the E. coli food suspension was consumed (FIG. 14). Age-synchronized worm eggs were obtained by “egg prep” as follows: adult worms were treated with an alkaline hypochlorite solution (20% bleach, 25% 1M NaOH) for 6 minutes, thereafter centrifuged and washed in M9 buffer twice. The egg pellet was then re-suspended in S-medium to obtain the appropriate egg concentration before being transferred to 96-well plates. The OP50 bacteria was prepared by inactivating an overnight culture (37° C., 180 rpm, Luria Broth media) with 4 freeze-thaw cycles. Before use, the OP50 was re-suspended in supplemented S-medium (cholesterol, streptomycin, penicillin and nystatin). The compounds were prepared in 100% DMSO (Sigma) and diluted up to a test concentration of 1% DMSO to prevent solvent toxicity. For each compound, several concentrations (150-10 μM) were tested, with the exception of MC369 (75-10 μM) due to solubility issues. For each compound, several concentrations were used and the corresponding OD595 consumption rate (slope) for days 3-5 was calculated. The compounds were tested in worms grown in 96 well plates (PlateLayout.xls, Supporting Information), in two independent experiments. For the statistical analysis, the data from both experiments were pooled together and IBM SPSS was used to apply an ANOVA (Brown-Forsythe robust test of equality of means) followed by the Games-Howell post hoc test to compare the different concentrations used for each compound and 5% DMSO (wt/v) to the control (1% DMSO(wt/v)).

[2] = tested on: A498 parental cells; assay: BrdU proliferation assay, A498 parental; assay type: cell-based; conditions: 24 and 48 hours, IC50 and ½IC50

| Structure (SMILES) | rate of food consumption between days 3-5 vs 1% DMSO [1] | effect on cell proliferation (BrdU) [2] |
| --- | --- | --- |
| COc1cccc2c1Oc1nc(-c3ccccc3F)[nH]c1C2C1c2cccc(OC)c2Oc2nc(-c3ccccc3F)[nH]c21 (stereo not drawn) [MC369, 2,2′-bis(2-fluorophenyl)-5,5′-dimethoxy-1,1,9,9′-tetrahydro-9,9′-bichromeno[2,3-]imidazoles] | No statistical differences |  |
| COc1cccc2c1Oc1nc(-c3ccc(F)cc3)[nH]c1C2C1c2cccc(OC)c2Oc2nc(-c3ccc(F)cc3)[nH]c21 (stereo not drawn) [MC406, 2,2′-bis(4-fluorophenyl)-5,5′-dimethoxy-1,1,9,9′-tetrahydro-9,9′-bichromeno[2,3-]imidazoles] | No statistical differences |  |
| COc1cccc2c1Oc1nc(-c3ccccc3F)[nH]c1C2 [MC407, 2-(2-fluorophenyl)-5-methoxy-3,9-dihydrochromeno[2,3-d]imidazoles] | No statistical differences |  |
| COc1cccc2c1Oc1nc(-c3ccc(Br)cc3)[nH]c1C2 [MC408, 2-(4-bromophenyl)-5-methoxy-3,9-dihydrochromeno[2,3-d]imidazoles] | No statistical differences | significant decrease in cell proliferation |
| COc1cccc2c1Oc1nc(-c3ccc(F)cc3)[nH]c1C2 [MC409, 2-(4-fluorophenyl)-5-methoxy-3,9-dihydrochromeno[2,3-d]imidazoles] | No statistical differences |  |
| COc1cccc2c1Oc1nc(-c3ccc(O)cc3)[nH]c1C2 [MC413, 4-(5-methoxy-3,9-dihydrochromeno[2,3-d]imidazol-2-yl)phenol] |  | significant decrease in cell proliferation |
| COc1cccc2c1Oc1nc(-c3ccc(Br)cc3)[nH]c1C2C1c2cccc(OC)c2Oc2nc(-c3ccc(Br)cc3)[nH]c21 (stereo not drawn) [MC421, 2,2′-bis(4-bromophenyl)-5,5′-dimethoxy-1,1,9,9′-tetrahydro-9,9′-bichromeno[2,3-]imidazoles] | No statistical differences | significant decrease in cell proliferation |
